1 molecule from paper PMC9775433 (Cancers, 2022) can be followed below.

Values joined by “and” are separate entries in the source; they are usually repeats but may differ in a detail not shown here. Identical values can stand only once.

Holding throughout (format): in vivo, human
Holding throughout (conditions): individual patient

Series [1] can be described thus: Tumor drug concentration in tumor needle biopsy at day 17 (LC-MS-MS). Here is the method:
(§1) All tissue samples were immediately snap frozen (within 1 min) in liquid nitrogen and cryopreserved at −80 °C until the day of analysis.
(§2) Tissue biopsies were weighed accurately before analysis. Tissue homogenate was prepared by using a mechanical homogenizer. The tumor tissue was homogenized with the precellys lysing kit (bertin instruments®) in the Roche MagNA lyzer®. […] Tissue homogenate samples were directly analyzed.
(§3) Supplementary data S2 – Methods (Details)
(§4) samples; using a validated liquid chromatography–tandem mass spectrometry (LC-MS-MS).
(§5) The system consisted of an Acquity H‐Class UPLC system, coupled to a Xevo TQ‐S micro
(§6) tandem mass spectrometer. […]

Series [2] is described as follows: Plasma pharmacokinetics of high-dose intermittent sunitinib (LC-MS-MS, NONMEM). Here is the method: Study pharmacokinetic assessment in plasma: Ethylenediaminetetraacetic acid (EDTA) blood was collected pretreatment and subsequently at multiple time points in all patients (0, 2, 4, 6, 8, 10, and 24 h post-dose on day 1 for both time schedules and thereafter at days 3, 8, 10, 15, 17, and 22 for the once weekly schedule and at days 3, 15, 17, and 29 for the once every 2 weeks schedule). All samples were centrifuged within 1 h after collection at 2000 g for 10 min (at 4 degrees Celsius (°C)), plasma was separated and stored at −80 °C until the day of analysis.
Since there is no evidence for the exact relationship between plasma and tumor concentrations, we chose to use the concentration–time data calculated by NONMEM for Cmax, the average concentration over time (Caverage) and the trough concentrations just before the next dose was administered (Ctrough) based on rich PK-data of each individual patient. […] Inter-occasion variability in bioavailability and absorption duration were allowed in the model. The control stream of the final model and the goodness-of-fit plots are supplied in the Supplementary Material (Supplementary Data S3). The developed model was used to derive the individual predictions for the Cmax, Caverage, and Ctrough. SUM concentrations were calculated.
as §3, §4, §5, §6

Series [3] in a line: Skin drug concentration in skin biopsy at day 17 (LC-MS-MS). How it is done: as §1, §2, §3, §4, §5, §6

For the molecule `CCNCCNC(=O)c1c(C)[nH]c(/C=C2\C(=O)Nc3ccc(F)cc32)c1C` [N-desethyl sunitinib], the “Tumor - N-desethyl Sunitinib concentration” value was 589 µg/L and 12025 µg/L and 812 µg/L and 1101 µg/L and 1077 µg/L and 2934 µg/L and 6513 µg/L and 22945 µg/L and 578 µg/L and 10356 µg/L and 342 µg/L and 767 µg/L in series [1] (sunitinib 300 mg O1W); 400 µg/L in series [1] (sunitinib 400 mg O2W); 13436 µg/L and 2500 µg/L and 19730 µg/L and 2387 µg/L and 4534 µg/L and 1675 µg/L and 17843 µg/L and 555 µg/L in series [1] (sunitinib 700 mg O2W); 330 µg/L in series [1] (sunitinib 800 mg O2W). Further, the “Cmax plasma - N-desethyl Sunitinib concentration” value in series [2] (sunitinib 200 mg O1W) was 68 ng/mL and 40 ng/mL and 58 ng/mL; in series [2] (sunitinib 300 mg O1W), 29 ng/mL and 34 ng/mL and 28 ng/mL and 22 ng/mL and 51 ng/mL and 15 ng/mL and 94 ng/mL and 32 ng/mL and 21 ng/mL and 31 ng/mL and 33 ng/mL and 23 ng/mL and 27 ng/mL and 43 ng/mL and 210 ng/mL and 63 ng/mL and 14 ng/mL; in series [2] (sunitinib 300 mg O2W), 29 ng/mL and 7.49 ng/mL and 27 ng/mL; in series [2] (sunitinib 400 mg O1W) it was 15 ng/mL and 26 ng/mL and 9.48 ng/mL and 22 ng/mL and 28 ng/mL and 25 ng/mL and 6.66 ng/mL and 44 ng/mL and 154 ng/mL and 57 ng/mL; in series [2] (sunitinib 400 mg O2W) it was 33 ng/mL and 31 ng/mL and 28 ng/mL and 34 ng/mL; in series [2] (sunitinib 500 mg O2W) it was 32 ng/mL and 29 ng/mL and 51 ng/mL. Besides, the “Cmax plasma - N-desethyl Sunitinib concentration” value is 45 ng/mL and 41 ng/mL in series [2] (sunitinib 600 mg O2W); 26 ng/mL and 52 ng/mL and 24 ng/mL and 65 ng/mL and 55 ng/mL and 51 ng/mL and 21 ng/mL and 30 ng/mL and 40 ng/mL and 59 ng/mL and 35 ng/mL and 48 ng/mL and 36 ng/mL and 34 ng/mL and 23 ng/mL and 84 ng/mL and 164 ng/mL and 150 ng/mL and 85 ng/mL and 68 ng/mL and 54 ng/mL and 76 ng/mL and 125 ng/mL and 128 ng/mL and 200 ng/mL and 57 ng/mL in series [2] (sunitinib 700 mg O2W); 55 ng/mL and 84 ng/mL and 13 ng/mL and 14 ng/mL and 29 ng/mL in series [2] (sunitinib 800 mg O2W). For the same molecule, the “Skin - N-desethyl Sunitinib concentration” value in series [3] (sunitinib 300 mg O1W) was 1288 µg/L and 1388 µg/L and 267 µg/L and 1355 µg/L and 529 µg/L and 224 µg/L and 648 µg/L and 865 µg/L and 1498 µg/L and 621 µg/L and 1842 µg/L and 2193 µg/L and 488 µg/L; in series [3] (sunitinib 300 mg O2W) it was 124 µg/L and 218 µg/L; in series [3] (sunitinib 400 mg O1W), 406 µg/L; in series [3] (sunitinib 700 mg O2W), 2743 µg/L and 221 µg/L and 168 µg/L and 987 µg/L and 5179 µg/L and 572 µg/L and 425 µg/L and 429 µg/L and 380 µg/L and 326 µg/L and 5652 µg/L and 1279 µg/L and 460 µg/L and 1021 µg/L and 1060 µg/L and 896 µg/L; in series [3] (sunitinib 800 mg O2W), 194 µg/L.
